Active and inactive are the calls of the source. The calls are words filed in the database; no cut-off is given here. A value given as a limit tells only on which side of the number the result lay.

The record followed here is ChEMBL document CHEMBL5370610, “Urotensin II Receptor Modulation with 1,3,4-Benzotriazepin-2-one Tetrapeptide Mimics” (J Med Chem, 2023).

Test [1] in a line: Agonist activity at RLucII-tagged Galpha-13 (unknown origin) expressed in HEK293 cells co-expressing human UT/GFP10-tagged G-gamma assessed as activation of Galpha-13 by BRET assay. It is filed as cell-based. In general terms: BRET reads energy transfer from a luciferase to a nearby fluorophore.
The test system of test [2] is HEK293. Put plainly: Agonist activity at RLucII-tagged Galpha-13 (unknown origin) expressed in HEK293 cells co-expressing human UT/GFP10-tagged G-gamma assessed as activation of Galpha-13 at 10^-5 M by BRET assay relative to hUII. To be noted: filed as agonist, dose 1.0 10^-5M. It counts as cell-based.
Test [3] has as its target T1, Beta-arrestin-1 (Homo sapiens, UniProt P49407). Kind of test: Agonist activity at RLucII/GFP10-tagged beta-arrestin-1 (unknown origin) recruitment expressed in HEK293 cells co-expressing human UT assessed as beta-arrestin recruitment by BRET assay. It is filed as cell-based. (In general: Activated receptors often draw arrestin, which recruitment assays turn into a signal.)

Test [4] concerns the target T1, Beta-arrestin-1. Put plainly: Agonist activity at RLucII/GFP10-tagged beta-arrestin-1 (unknown origin) expressed in HEK293 cells co-expressing human UT assessed as beta-arrestin recruitment at 10^-5 M by BRET assay relative to hUII. It counts as cell-based. To be noted: filed as agonist, dose 1.0 10^-5M.
The target in test [5] is T2, Guanine nucleotide-binding protein G(q) subunit alpha (Homo sapiens, UniProt P50148).
T2 sequence (P50148 whole entry): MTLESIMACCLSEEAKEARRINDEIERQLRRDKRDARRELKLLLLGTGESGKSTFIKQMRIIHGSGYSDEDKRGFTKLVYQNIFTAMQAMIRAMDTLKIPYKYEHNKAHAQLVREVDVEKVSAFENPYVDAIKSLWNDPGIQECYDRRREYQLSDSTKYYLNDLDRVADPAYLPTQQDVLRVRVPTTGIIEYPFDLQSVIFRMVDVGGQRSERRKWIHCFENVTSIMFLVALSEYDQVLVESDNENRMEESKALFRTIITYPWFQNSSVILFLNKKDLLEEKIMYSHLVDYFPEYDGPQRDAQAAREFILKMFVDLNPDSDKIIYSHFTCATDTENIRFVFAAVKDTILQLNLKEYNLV
Kind of test: Agonist activity at RLucII-tagged Galpha-q (unknown origin) expressed in HEK293 cells co-expressing human UT/GFP10-tagged G-gamma assessed as activation of Galpha-q by BRET assay. It is filed as cell-based.

Test [6] deals with T3, Guanine nucleotide-binding protein G(q) subunit alpha (Homo sapiens) (UniProt P50148).
T3 sequence (whole entry): T2 sequence (P50148 whole entry)
Kind of test: Agonist activity at RLucII-tagged Galpha-q (unknown origin) expressed in HEK293 cells co-expressing human UT/GFP10-tagged G-gamma assessed as activation of Galpha-q at 10^-5 M by BRET assay relative to hUII. It is filed as cell-based. To be noted: filed as agonist, dose 1.0 10^-5M.

Test [7] is described as follows: Agonist activity at RLucII-tagged Galpha-i (unknown origin) expressed in HEK293 cells co-expressing human UT/GFP10-tagged G-gamma assessed as activation of Galpha-i by BRET assay. It is filed as cell-based.
Test [8] relates to HEK293. Kind of test: Agonist activity at RLucII-tagged Galpha-i (unknown origin) expressed in HEK293 cells co-expressing human UT/GFP10-tagged G-gamma assessed as activation of Galpha-i at 10^-5 M by BRET assay relative to hUII. It is filed as cell-based. Particulars: filed as agonist, dose 1.0 10^-5M.
Test [9] has as its system Aorta. Kind of test: Ex vivo modulatory effect on hUII-induced contractile activity in Sprague-Dawley rat aortic ring at 10^-6 M pretreated for 30 mins followed by hUII addition. It is filed as functional, tissue-based. Particulars: dose 1.0 10^-6M.
Test [10] has as its system Aorta. Kind of test: Ex vivo modulatory effect on URP-induced contractile activity in Sprague-Dawley rat aortic ring at 10^-6 M pretreated for 30 mins followed by URP addition. It is filed as functional, tissue-based. Particulars: dose 1.0 10^-6M.
Test [11] has as its target T3, Guanine nucleotide-binding protein G(q) subunit alpha (Homo sapiens). Put plainly: Agonist activity at RLucII-tagged Galpha-q (unknown origin) expressed in HEK293 cells co-expressing human UT/GFP10-tagged G-gamma assessed as activation of Galpha-q at 10^-5 M by BRET assay. It is filed as cell-based. To be noted: dose 1.0 10^-5M.
Test [12] has as its system HEK293. Put plainly: Agonist activity at RLucII-tagged Galpha-i (unknown origin) expressed in HEK293 cells co-expressing human UT/GFP10-tagged G-gamma assessed as activation of Galpha-i at 10^-5 M by BRET assay. It is filed as cell-based. Particulars: dose 1.0 10^-5M.
The target in test [13] is T2, Guanine nucleotide-binding protein G(q) subunit alpha. Put plainly: Antagonist activity at hUII-activated RLucII-tagged Galpha-q (unknown origin) expressed in HEK293 cells co-expressing human UT/GFP10-tagged G-gamma by BRET assay (reference value: 8.26 +/- 0.09). It is filed as cell-based.
The test system of test [14] is HEK293. Kind of test: Antagonist activity at hUII-activated RLucII-tagged Galpha-q (unknown origin) expressed in HEK293 cells co-expressing human UT/GFP10-tagged G-gamma at 10^-6 M by BRET assay (reference value: 100 +/- 4 %). It is filed as cell-based. Particulars: filed as antagonist, dose 1.0 10^-6M.
For test [15], the target named is T2, Guanine nucleotide-binding protein G(q) subunit alpha. Put plainly: Antagonist activity at URP-activated RLucII-tagged Galpha-q (unknown origin) expressed in HEK293 cells co-expressing human UT/GFP10-tagged G-gamma by BRET assay (reference value: 7.33 +/- 0.10). It counts as cell-based.
Test [16] addresses T3, Guanine nucleotide-binding protein G(q) subunit alpha (Homo sapiens). Put plainly: Antagonist activity at URP-activated RLucII-tagged Galpha-q (unknown origin) expressed in HEK293 cells co-expressing human UT/GFP10-tagged G-gamma at 10^-6 M by BRET assay (reference value: 100 +/- 4 %). It counts as cell-based. Particulars: filed as antagonist, dose 1.0 10^-6M.
Test [17] in a line: Antagonist activity at hUII-activated RLucII-tagged Galpha-i (unknown origin) expressed in HEK293 cells co-expressing human UT/GFP10-tagged G-gamma by BRET assay (reference value: 7.41 +/- 0.15). It is filed as cell-based.
Test [18] relates to HEK293. Kind of test: Antagonist activity at hUII-activated RLucII-tagged Galpha-i (unknown origin) expressed in HEK293 cells co-expressing human UT/GFP10-tagged G-gamma at 10^-6 M by BRET assay (reference value: 100 +/- 5 %). To be noted: filed as antagonist, dose 1.0 10^-6M. It is filed as cell-based.
Test [19] can be described thus: Antagonist activity at URP-activated RLucII-tagged Galpha-i (unknown origin) expressed in HEK293 cells co-expressing human UT/GFP10-tagged G-gamma by BRET assay (reference value: 7.10 +/- 0.19). It is filed as cell-based.
The test system of test [20] is HEK293. Kind of test: Antagonist activity at URP-activated RLucII-tagged Galpha-i (unknown origin) expressed in HEK293 cells co-expressing human UT/GFP10-tagged G-gamma at 10^-6 M by BRET assay (reference value: 100 +/- 7 %). It counts as cell-based. Particulars: filed as antagonist, dose 1.0 10^-6M.
The test system of test [21] is Aorta. Kind of test: Ex vivo modulatory effect on hUII-induced contractile activity in Sprague-Dawley rat aortic ring (reference value: 8.37 +/- 0.08). It is filed as functional, tissue-based.
In test [22] the test system is Aorta. Kind of test: Ex vivo modulatory effect on hUII-induced contractile activity in Sprague-Dawley rat aortic ring at 10^-6 M pretreated for 30 mins followed by hUII addition (reference value: 100 +/- 9 %). It counts as functional. To be noted: 0.5 h, dose 1 10^-6M.
Test [23] concerns Aorta. Put plainly: Ex vivo modulatory effect on URP-induced contractile activity in Sprague-Dawley rat aortic ring (reference value: 8.06 +/- 0.27). It counts as functional, tissue-based.
Test [24] deals with Aorta. Kind of test: Ex vivo modulatory effect on URP-induced contractile activity in Sprague-Dawley rat aortic ring at 10^-6 M pretreated for 30 mins followed by URP addition (reference value: 100 +/- 8 %). Particulars: 0.5 h, dose 1 10^-6M. It counts as functional.

T1 sequence (P49407 whole entry): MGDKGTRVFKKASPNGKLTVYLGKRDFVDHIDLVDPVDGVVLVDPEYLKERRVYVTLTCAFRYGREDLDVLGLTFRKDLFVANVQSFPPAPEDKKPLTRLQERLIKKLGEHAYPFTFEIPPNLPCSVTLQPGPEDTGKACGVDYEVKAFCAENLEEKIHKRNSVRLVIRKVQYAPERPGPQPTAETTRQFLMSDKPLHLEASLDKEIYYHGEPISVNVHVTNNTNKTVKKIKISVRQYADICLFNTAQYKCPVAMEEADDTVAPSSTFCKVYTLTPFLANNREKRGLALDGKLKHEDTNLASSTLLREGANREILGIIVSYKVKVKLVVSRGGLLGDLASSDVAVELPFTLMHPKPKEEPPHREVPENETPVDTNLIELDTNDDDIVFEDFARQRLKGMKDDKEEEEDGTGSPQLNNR

What is called EC50 is the concentration giving half of the maximal effect. As usually defined, the Emax is the size of the effect at its maximum, as opposed to the concentration needed. With `COc1ccc(/C=C/C2=NN(CCCCN)C(=O)N(Cc3ccc(-c4ccccc4)cc3)c3cc(C(=O)NCCOc4ccccc4)ccc32)cc1`, the concentration for a half-maximal effect (EC50) in test [1] was 45.7 nM; at Beta-arrestin-1 [3], 0.49 nM; in test [5], more than 10000 nM; in test [7] it was more than 10000 nM. In addition, the Emax in the test on HEK293 [2] worked out at 102%; at Beta-arrestin-1 [4], 78%; in test [6], 52%; in the test on HEK293 [8], 50%. Further, the result in the test on Aorta [9] and in the test on Aorta [10] was Active.

For the compound `NCCCCN1N=C(/C=C/c2ccc(O)cc2)c2ccc(C(=O)NCC(c3ccccc3)c3ccccc3)cc2N(Cc2ccc(-c3ccccc3)cc2)C1=O`, the EC50 in [1] is 200 nM; on Beta-arrestin-1 [3], 95.5 nM; in test [13], 6.92 nM; in test [15] it was 25.1 nM; in test [17] it was 53.7 nM; in test [19] it was 102 nM. Besides, the EC50 in the test on Aorta [21] is 5.5 nM; in the test with Aorta [23] it was 44.7 nM. The Emax in the test with HEK293 [2] was found to be 198%; on Beta-arrestin-1 [4] it was 76%; with HEK293 [14], 83%; in [16] it was 103%; in the test with HEK293 [18] it was 95%; with HEK293 [20], 89%. The outcome (in test [11]; in the test with HEK293 [12]) was inactive. Further, the Emax at 1 µM with Aorta [22] is 77%; in the test with Aorta [24] it was 56%.
